Results taken from patent US20200377459A1, “CHARGED ION CHANNEL BLOCKERS AND METHODS FOR USE” (President and Fellows of Harvard College, priority 2015, published 2020).
“Also recorded” adds a separate entry of the source.

Assays:
[1] = test system: CFA-induced thermal hyperalgesia; test: CFA-induced thermal hyperalgesia (Hargreaves radiant heat, hind paw); format: in vivo; conditions: mice, intraplantar co-injection with CFA, 1%
Method: FIGS. 2A-2D show reversal of CFA-induced thermal hyperalgesia by charged sodium channel blockers. FIGS. 2A and 2C show time course (0, 1, 6, and 24 hours) of changes in thermal nociceptive sensitivity measured as response latency (seconds) to a constant radiant heat source applied to the plantar surface of hind paw in mice co-treated with 20 μL (injected in the left hindpaw) of CFA (50% emulsion) and saline, and when the CFA was co-applied with QX-314 (1%, hollow square), N-ethyl etidocaine (Compound 21, 1%; dark square), or ACS8180-3B (Compound 3, 1%; solid triangle). FIGS. 2B and 2D show the nociceptive heat pain response time before CFA treatment and after treatment with the different compounds 1 hour post CFA injection. The data are means±SEM of 8-16 mice per group. The statistical comparison with pre-CFA (*) and with CFA+Vehicle (+) is indicated by +P<0.05; ++P<0.01 and +++,*** P<0.001. All procedures were approved by the Institutional Animal Care and Use Committees. Mice and rats were housed in standard environmental conditions (12-h light/dark cycle; 23° C.; food and water ad libitum) at facilities accredited by the Association for Assessment and Accreditation of Laboratory Animal Care. 8-week old male BALB/c (stock number: 001026) and C57BL/6J (stock number 000664) mice were purchased from Jackson Laboratory and respectively used in allergic airway inflammation (FIG. 5) and pain hypersensitivity model (FIGS. 2A-2D). 6-week old male Sprague-Dawley (stock number: 400) rats, 150±25 grams, were purchased from Charles River laboratory and used to assess pain hypersensitivity (FIG. 3). The compounds were injected in the plantar surface of each animal's right hind paw in 10 μl (mice) or 50 μl (rats) volume of 1:1 emulsion of Complete Freund's Adjuvant (CFA). […] On the 4th day, their thermal nociceptive threshold was evaluated. […] Impact of treatment was analyzed 1 h prior and 1, 3, 6 and 24 h post-treatment. […] With each reading the apparatus was set with a cut-off time of 32 s.

[2] = test system: allergic airway inflammation induced by Ovalbumin; test: Ovalbumin allergic airway inflammation, BALF immune cell counts; format: in vivo; conditions: OVA-exposed mice, aerosolized 100 μM on day 18, read day 21
Method: FIG. 5A-5E are results showing that lung sensory neuron silencing with N-ethyl-etidocaine (Compound 21) reduces allergic airway inflammation. OVA-exposed mice (day 21) develop increases in BALF total (FIG. 5A), and CD45+ cells (FIG. 5B), including eosinophil (FIG. 5C), macrophage (FIG. 5D) and T-cell (FIG. 5E) counts. In comparison to vehicle treatment, the silencing of sensory neurons using aerosolized QX-314 (100 μM, hollow square) or N-ethyl-etidocaine (Compound 21) (100 μM, dark square) decreased these levels. […] Data expressed as mean S.E.M; Two-tailed unpaired Student's t-test (n=8-16 animals/group; 1-2 cohorts). […]
Allergic airway inflammation was studied in an ovalbumin (OVA) based model. […] Drugs were nebulized on day 18 (10:00 am) and inflammation (BALF cell content)/airway hyper-responsiveness were assessed on day 21 (10:00 am). […]
Bronchoalveolar lavage fluid (BALF) cells were re-suspended in FACS buffer (PBS, 2% FCS, EDTA), and incubated with Fc block (0.5 mg/ml, 10 min; BD Biosciences). […] A leukocyte differential count was determined during flow cytometry analysis of cells expressing the common leukocyte antigen CD45 (BD Pharmigen; cat no: 553079). […] Total BAL cell counts were performed using a standard hemocytometer, with absolute cell numbers calculated as total BAL cell number multiplied by the percentage of cell subpopulation as determined by FACS.

Row | SMILES | reversal of CFA-induced thermal hyperalgesia [1] | BALF immune cell levels (total, CD45+, eosinophil, macrophage, T-cell) [2]
1 | CCC[N+](CC)(CC)C(CC)C(=O)Nc1c(C)cccc1C (stereo not shown) [Compound 21, N-ethyl etidocaine] | reversed; also recorded: potent blockade | blocked; also recorded: potently reversed; also recorded: decreased; also recorded: tendency toward a greater decrease in comparison to QX-314
2 | CC[N+](CC)(CC)CC(=O)Nc1c(C)cccc1C [QX-314, reference compound] | reversed | decreased
